Test system: obscurin-KD MCF10A cells
Experiment: Sensitivity of obscurin-KD MCF10A cells to chemotherapeutic drugs (cell viability)
Assay type: cell-based, human
Settings: compared to control cells
From the text: Moreover, loss of giant obscurins results in major cytoskeletal alterations leading to increased cell growth, motility and invasion. […] Thus, breast cancer cells may have different responses to cytoskeletal-targeting chemotherapies depending on the relative expression of giant obscurins.

| Compound | sensitivity of obscurin-depleted MCF10A cells to the drug |
| --- | --- |
| CC(=O)O[C@H]1C(=O)[C@@]2(C)[C@H]([C@H](OC(=O)c3ccccc3)[C@]3(O)C[C@H](OC(=O)[C@H](O)[C@@H](NC(=O)c4ccccc4)c4ccccc4)C(C)=C1C3(C)C)[C@]1(OC(C)=O)CO[C@@H]1C[C@@H]2O [paclitaxel] | reduced sensitivity |
| COc1cc([C@@H]2c3cc4c(cc3[C@@H](O[C@@H]3O[C@@H]5CO[C@@H](C)O[C@H]5[C@H](O)[C@H]3O)[C@H]3COC(=O)[C@H]23)OCO4)cc(OC)c1O [etoposide] | reduced sensitivity |
